Read-outs that look alike come from different tables or passages of the source. Where a SMILES comes first, the peptide text is derived from it. Where no end group is shown, it is not given here.
Conditions: for Solubility in […] SS in D5W w/ 4% DMSO: […] sodium succinate in D5W; for solubility: without DMSO, after 6 hours; for solubility in 5 mM SS: 5 mM SS (higher SS concentration) in D5W; for solubility in low SS: lower SS concentration ([…] SS/D5W)
[1] = with polyICLC, 5 mM SS in D5W, 4% DMSO

| Compound | Solubility in […] SS in D5W w/ 4% DMSO (4% DMSO, no polyICLC) | Solubility in Poly ICLC + […] SS in D5W w/ 4% DMSO (with polyICLC, 4% DMSO) | solubility (0.4 mg/mL in […] SS) | solubility in 5 mM SS | Solubility in […] SS in D5W w/o DMSO (no DMSO, no polyICLC) | Solubility in Poly ICLC + […] SS in D5W w/o DMSO (with polyICLC, no DMSO) | solubility (5 mM SS) | also measured |
| --- | --- | --- | --- | --- | --- | --- | --- | --- |
| CSCC[C@H](N)C(=O)N[C@@H](Cc1ccccc1)C(=O)N[C@@H](C)C(=O)N[C@H](C(=O)N[C@@H](CC(C)C)C(=O)N[C@@H](CCC(N)=O)C(=O)N[C@@H](CCCNC(=N)N)C(=O)N[C@@H](CO)C(=O)N[C@@H](CO)C(=O)N[C@@H](CC(C)C)C(=O)N[C@@H](Cc1c[nH]c2ccccc12)C(=O)N[C@@H](CS)C(=O)N[C@@H](CC(C)C)C(=O)N[C@@H](CS)C(=O)N[C@@H](CO)C(=O)N[C@@H](CC(N)=O)C(=O)N[C@@H](Cc1c[nH]cn1)C(=O)O)[C@@H](C)O [Peptide 12b] (H-MFATLQRSSLWCLCSNH-OH) | Yes | No |  |  |  |  |  | Solubility in 0.5 mM SS in D5W w/ 4% DMSO (0.5 mM sodium succinate in D5W, 4% DMSO, no polyICLC): Yes |
| KAESKIMFATLQRSSLWCL [Peptide L11d] |  |  | soluble |  |  |  |  |  |
| FLKAESKIMFATLQRS [Peptide L11f] | Yes |  | soluble | not soluble | Yes | Yes |  | solubility in low SS: soluble |
| FLKAESKIMFATLQRSSLWCL [Peptide 11] |  | No |  |  |  |  |  |  |
| LHFCRSSIMKPKRDGYMFLKAESKI [Peptide L9] |  |  | soluble | soluble |  |  | soluble |  |
| KPKRDGYMFLKAESKI [Peptide L10c] | Yes |  | soluble | soluble | Yes | Yes | soluble | Solubility in Poly ICLC + 5 mM SS in D5W w/ 4% DMSO [1]: Yes; Solubility in Poly ICLC + 5 mM SS in D5W w/o DMSO (with polyICLC, 5 mM SS in D5W, no DMSO): Yes |
| CC(C)C[C@H](NC(=O)[C@H](CS)NC(=O)[C@H](Cc1c[nH]c2ccccc12)NC(=O)[C@H](CC(C)C)NC(=O)[C@H](CO)NC(=O)[C@H](CO)NC(=O)[C@H](CCCNC(=N)N)NC(=O)[C@H](CCC(N)=O)NC(=O)[C@H](CC(C)C)NC(=O)[C@@H](N)[C@@H](C)O)C(=O)N[C@@H](CS)C(=O)N[C@@H](CO)C(=O)N[C@@H](CC(N)=O)C(=O)N[C@@H](Cc1c[nH]cn1)C(=O)O [Peptide L12d] (H-TLQRSSLWCLCSNH-OH) | Yes | Yes |  |  | Yes |  | soluble | Solubility in Poly ICLC + 5 mM SS in D5W w/ 4% DMSO [1]: Yes |
| CC[C@H](C)[C@H](NC(=O)[C@H](CCCCN)NC(=O)[C@H](CO)NC(=O)[C@H](CCC(=O)O)NC(=O)[C@H](C)NC(=O)[C@H](CCCCN)NC(=O)[C@H](CC(C)C)NC(=O)[C@H](Cc1ccccc1)NC(=O)[C@H](CCSC)NC(=O)[C@H](Cc1ccc(O)cc1)NC(=O)CNC(=O)[C@H](CC(=O)O)NC(=O)[C@H](CCCNC(=N)N)NC(=O)[C@H](CCCCN)NC(=O)[C@@H]1CCCN1C(=O)[C@@H](N)CCCCN)C(=O)N[C@@H](CCSC)C(=O)N[C@@H](Cc1ccccc1)C(=O)N[C@@H](C)C(=O)N[C@H](C(=O)N[C@@H](CC(C)C)C(=O)N[C@@H](CCC(N)=O)C(=O)N[C@@H](CCCNC(=N)N)C(=O)N[C@@H](CO)C(=O)N[C@@H](CO)C(=O)N[C@@H](CC(C)C)C(=O)N[C@@H](Cc1c[nH]c2ccccc12)C(=O)N[C@@H](CS)C(=O)N[C@@H](CC(C)C)C(=O)N[C@@H](CS)C(=O)N[C@@H](CO)C(=O)N[C@@H](CC(N)=O)C(=O)N[C@@H](Cc1c[nH]cn1)C(=O)O)[C@@H](C)O [Peptide L15] (H-KPKRDGYMFLKAESKIMFATLQRSSLWCLCSNH-OH; N-terminus and C-terminus assumed) |  |  | soluble | not soluble | Yes | Yes |  | solubility in low SS: soluble |
| ESKIMFATLQRSSLWC [Peptide L11g] | Yes | No |  |  |  |  |  |  |

— patent US20210275657A1, “NEOANTIGENS AND USES THEREOF” (BioNTech US Inc., priority 2018, published 2021)
